Reference: ChEMBL document CHEMBL1255183, “Role of the phenolic hydroxyl group in the biological activities of simplified analogue of aplysiatoxin with antiproliferative activity” (Bioorg Med Chem Lett, 2010)

Experiments:
Raji [1] = assay: Induction of EBA-early antigen production in human Raji cells at 10^-7 M; format: cell-based; details: human gammaherpesvirus 4
A549 = assay: Cytotoxicity against human A549 cells; format: functional
Raji [2] = assay: Inhibition of TPA-induced EBA-early antigen production in human Raji cells at 10^-7 M; format: cell-based; design: scale not given: the % may be the effect or the level left; details: human gammaherpesvirus 4
[3] = Cytotoxicity against human Raji cells assessed as viability at 1 uM in presence of TPA; format: cell-based; details: read-out: Activity
[4] = Cytotoxicity against human Raji cells assessed as viability at 10^-7 M; format: cell-based; details: read-out: Activity
SF-295 = assay: Cytotoxicity against human SF295 cells; format: functional
Raji [5] = assay: Induction of EBA-early antigen production in human Raji cells at 1 uM; format: cell-based; details: human gammaherpesvirus 4
MDA-MB-231 = assay: Cytotoxicity against human MDA-MB-231 cells; format: functional
HCC 2998 = assay: Cytotoxicity against human HCC2998 cells; format: functional
Raji [6] = assay: Inhibition of TPA-induced EBA-early antigen production in human Raji cells at 1 uM; format: cell-based; design: scale not given: the % may be the effect or the level left; details: human gammaherpesvirus 4
[7] = Cytotoxicity against human Raji cells assessed as viability at 10^-7 M in presence of TPA; format: cell-based; details: read-out: Activity
PC-3 = assay: Cytotoxicity against human PC3 cells; format: functional
[8] = Cytotoxicity against human Raji cells assessed as viability at 1 uM; format: cell-based; details: read-out: Activity
NCI-H460 = assay: Cytotoxicity against human NCI-H460 cells; format: functional
U-251 = assay: Cytotoxicity against human U251 cells; format: functional
NCI-H522 = assay: Cytotoxicity against human NCI-H522 cells; format: functional
LOX IMVI = assay: Cytotoxicity against human LOXIMVI cells; format: functional
MCF7 = assay: Cytotoxicity against human MCF7 cells; format: functional
MKN-74 = assay: Cytotoxicity against human MKN74 cells; format: functional
[9] = target: T1, Protein kinase C delta type (Homo sapiens, UniProt Q05655); assay: Inhibition of [3H]PDBu binding to PKC delta C1B peptide
T1 sequence (Q05655 whole entry): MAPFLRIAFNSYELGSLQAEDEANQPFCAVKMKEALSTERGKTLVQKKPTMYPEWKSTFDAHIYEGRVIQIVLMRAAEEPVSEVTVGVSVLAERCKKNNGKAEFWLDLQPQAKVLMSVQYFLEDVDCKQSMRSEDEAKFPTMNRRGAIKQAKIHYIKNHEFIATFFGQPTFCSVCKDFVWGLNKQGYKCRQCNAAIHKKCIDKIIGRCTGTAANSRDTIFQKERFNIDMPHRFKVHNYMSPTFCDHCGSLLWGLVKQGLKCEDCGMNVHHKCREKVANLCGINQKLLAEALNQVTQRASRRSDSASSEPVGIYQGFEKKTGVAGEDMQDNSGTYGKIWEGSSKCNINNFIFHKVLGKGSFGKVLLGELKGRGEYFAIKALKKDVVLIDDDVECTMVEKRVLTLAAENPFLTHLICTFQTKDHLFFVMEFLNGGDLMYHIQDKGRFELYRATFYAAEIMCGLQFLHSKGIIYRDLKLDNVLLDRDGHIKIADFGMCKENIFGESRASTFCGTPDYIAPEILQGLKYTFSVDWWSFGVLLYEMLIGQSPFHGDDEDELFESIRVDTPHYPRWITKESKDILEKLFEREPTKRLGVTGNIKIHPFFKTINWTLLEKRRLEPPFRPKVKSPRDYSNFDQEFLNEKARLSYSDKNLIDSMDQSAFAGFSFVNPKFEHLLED

DMS-273 = assay: Cytotoxicity against human DMS273 cells; format: functional
KM12 = assay: Cytotoxicity against human KM12 cells; format: functional
SF-268 = assay: Cytotoxicity against human SF268 cells; format: functional
St-4 = assay: Cytotoxicity against human St-4 cells; format: functional
NCI-H23 = assay: Cytotoxicity against human NCI-H23 cells; format: functional
[10] = target: T1, Protein kinase C delta type; assay: Inhibition of [3H]PDBu binding to PKC delta C1A peptide
SNB-78 = assay: Cytotoxicity against human SNB78 cells; format: functional
HT-29 = assay: Cytotoxicity against human HT-29 cells; format: functional
OVCAR-4 = assay: Cytotoxicity against human OVCAR4 cells; format: functional
[11] = Cytotoxicity against human MKN1 cells; format: functional; details: MKN-1
OVCAR-8 = assay: Cytotoxicity against human OVCAR8 cells; format: functional
MKN-28 = assay: Cytotoxicity against human MKN28 cells; format: functional
[12] = target: Protein kinase C gamma type (Homo sapiens, UniProt P05129); assay: Inhibition of [3H]PDBu binding to PKC gamma C1A peptide
HCT-116 = assay: Cytotoxicity against human HCT116 cells; format: functional
ACHN = assay: Cytotoxicity against human ACHN cells; format: functional
[13] = target: T2, Protein kinase C epsilon type (Homo sapiens, UniProt Q02156); assay: Inhibition of [3H]PDBu binding to PKCepsilon C1B peptide
T2 sequence (Q02156 whole entry): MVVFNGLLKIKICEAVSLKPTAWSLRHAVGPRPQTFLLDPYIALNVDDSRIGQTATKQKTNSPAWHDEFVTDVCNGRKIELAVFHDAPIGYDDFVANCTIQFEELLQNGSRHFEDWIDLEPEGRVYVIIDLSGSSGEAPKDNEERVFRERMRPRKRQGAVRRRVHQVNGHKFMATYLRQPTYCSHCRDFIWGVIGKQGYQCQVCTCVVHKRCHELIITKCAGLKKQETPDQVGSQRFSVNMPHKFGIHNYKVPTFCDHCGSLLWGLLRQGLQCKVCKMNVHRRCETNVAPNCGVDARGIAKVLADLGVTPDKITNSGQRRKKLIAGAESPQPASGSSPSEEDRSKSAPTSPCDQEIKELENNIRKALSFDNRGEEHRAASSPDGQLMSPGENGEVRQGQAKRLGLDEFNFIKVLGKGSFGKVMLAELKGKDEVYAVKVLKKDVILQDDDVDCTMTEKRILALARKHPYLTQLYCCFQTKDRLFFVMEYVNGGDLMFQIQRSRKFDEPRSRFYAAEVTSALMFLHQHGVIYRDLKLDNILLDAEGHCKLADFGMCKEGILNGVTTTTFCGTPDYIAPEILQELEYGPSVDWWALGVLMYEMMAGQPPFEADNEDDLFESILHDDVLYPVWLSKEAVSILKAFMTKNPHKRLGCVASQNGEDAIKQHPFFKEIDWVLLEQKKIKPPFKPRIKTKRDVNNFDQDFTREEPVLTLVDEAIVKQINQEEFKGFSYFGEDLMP

[14] = Cytotoxicity against human BSY1 cells; format: functional; details: BSY-1
OVCAR-3 = assay: Cytotoxicity against human OVCAR-3 cells; format: functional
SNB-75 = assay: Cytotoxicity against human SNB75 cells; format: functional
[15] = target: Protein kinase C theta type (Homo sapiens, UniProt Q04759); assay: Inhibition of [3H]PDBu binding to PKCtheta C1B peptide
Sequence of Protein kinase C theta type (Q04759 whole entry): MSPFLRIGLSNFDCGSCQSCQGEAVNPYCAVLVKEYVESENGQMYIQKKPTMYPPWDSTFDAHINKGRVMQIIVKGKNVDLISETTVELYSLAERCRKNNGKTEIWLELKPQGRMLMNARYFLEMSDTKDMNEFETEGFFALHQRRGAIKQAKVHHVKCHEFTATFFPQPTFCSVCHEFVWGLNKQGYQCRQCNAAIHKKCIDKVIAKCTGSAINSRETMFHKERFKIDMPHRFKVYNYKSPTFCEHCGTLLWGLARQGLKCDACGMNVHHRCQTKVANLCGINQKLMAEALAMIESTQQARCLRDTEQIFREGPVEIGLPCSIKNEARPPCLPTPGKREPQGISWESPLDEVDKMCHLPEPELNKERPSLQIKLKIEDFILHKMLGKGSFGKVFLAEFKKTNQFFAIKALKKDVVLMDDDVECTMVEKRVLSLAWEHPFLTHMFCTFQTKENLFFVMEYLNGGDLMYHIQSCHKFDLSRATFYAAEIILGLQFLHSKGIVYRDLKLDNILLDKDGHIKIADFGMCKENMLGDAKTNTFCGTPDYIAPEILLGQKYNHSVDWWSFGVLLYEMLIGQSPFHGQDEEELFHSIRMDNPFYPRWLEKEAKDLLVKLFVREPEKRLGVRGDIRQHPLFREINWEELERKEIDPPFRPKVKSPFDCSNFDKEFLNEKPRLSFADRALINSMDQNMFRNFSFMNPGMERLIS

MKN-7 = assay: Cytotoxicity against human MKN7 cells; format: functional
SK-OV-3 = assay: Cytotoxicity against human SKOV3 cells; format: functional
MKN-45 = assay: Cytotoxicity against human MKN45 cells; format: functional
[16] = target: Protein kinase C eta type (Homo sapiens, UniProt P24723); assay: Inhibition of [3H]PDBu binding to PKCeta C1B peptide
Sequence of Protein kinase C eta type (P24723 whole entry): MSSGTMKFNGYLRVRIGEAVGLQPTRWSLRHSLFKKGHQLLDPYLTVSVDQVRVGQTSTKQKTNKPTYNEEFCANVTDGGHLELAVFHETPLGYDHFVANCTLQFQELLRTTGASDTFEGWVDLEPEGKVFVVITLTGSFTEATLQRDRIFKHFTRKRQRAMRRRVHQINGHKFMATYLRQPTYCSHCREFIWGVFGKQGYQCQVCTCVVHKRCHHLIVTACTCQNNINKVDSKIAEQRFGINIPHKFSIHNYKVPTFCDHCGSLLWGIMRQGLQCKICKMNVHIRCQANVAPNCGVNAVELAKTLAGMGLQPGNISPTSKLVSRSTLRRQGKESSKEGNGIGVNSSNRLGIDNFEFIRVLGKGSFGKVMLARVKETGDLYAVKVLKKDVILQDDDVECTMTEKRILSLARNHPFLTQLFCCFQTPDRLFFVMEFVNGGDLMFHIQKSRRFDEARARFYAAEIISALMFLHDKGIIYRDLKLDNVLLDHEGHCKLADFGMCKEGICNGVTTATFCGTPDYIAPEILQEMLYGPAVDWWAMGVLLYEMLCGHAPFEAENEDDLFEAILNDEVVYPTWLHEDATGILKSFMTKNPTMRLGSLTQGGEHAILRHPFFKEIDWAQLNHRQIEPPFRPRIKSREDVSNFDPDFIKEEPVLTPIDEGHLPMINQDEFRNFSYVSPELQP

HCT-15 = assay: Cytotoxicity against human HCT15 cells; format: functional
OVCAR-5 = assay: Cytotoxicity against human OVCAR5 cells; format: functional
[17] = target: Protein kinase C beta type (Homo sapiens, UniProt P05771); assay: Inhibition of [3H]PDBu binding to PKC beta C1A peptide
Sequence of Protein kinase C beta type (P05771 whole entry): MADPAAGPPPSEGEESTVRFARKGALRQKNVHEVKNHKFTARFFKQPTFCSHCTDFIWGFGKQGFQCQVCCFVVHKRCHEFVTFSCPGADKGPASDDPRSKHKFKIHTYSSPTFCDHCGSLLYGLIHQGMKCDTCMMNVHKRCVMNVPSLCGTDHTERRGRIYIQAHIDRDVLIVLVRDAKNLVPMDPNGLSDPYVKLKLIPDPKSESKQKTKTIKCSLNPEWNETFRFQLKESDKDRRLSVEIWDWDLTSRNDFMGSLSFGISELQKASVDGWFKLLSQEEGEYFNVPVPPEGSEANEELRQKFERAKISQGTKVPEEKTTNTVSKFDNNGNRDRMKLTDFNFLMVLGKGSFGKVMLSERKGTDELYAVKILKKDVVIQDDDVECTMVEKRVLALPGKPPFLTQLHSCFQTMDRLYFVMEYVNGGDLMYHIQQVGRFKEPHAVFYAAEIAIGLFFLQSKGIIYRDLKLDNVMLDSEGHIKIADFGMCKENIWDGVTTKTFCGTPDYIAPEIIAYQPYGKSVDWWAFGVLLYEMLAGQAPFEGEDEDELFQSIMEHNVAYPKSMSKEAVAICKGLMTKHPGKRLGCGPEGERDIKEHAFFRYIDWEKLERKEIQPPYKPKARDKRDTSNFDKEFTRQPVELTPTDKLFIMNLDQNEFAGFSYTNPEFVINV

NCI-H226 = assay: Cytotoxicity against human NCI-H226 cells; format: functional
[18] = target: Protein kinase C alpha type (Homo sapiens, UniProt P17252); assay: Inhibition of [3H]PDBu binding to PKC alpha C1A peptide
SF-539 = assay: Cytotoxicity against human SF539 cells; format: functional
DU-145 = assay: Cytotoxicity against human DU145 cells; format: functional
[19] = Cytotoxicity against human HBC4 cells; format: functional
DMS-114 = assay: Cytotoxicity against human DMS114 cells; format: functional
[20] = Cytotoxicity against human RXF631L cells; format: functional; details: RXF 631

SMILES: CCC/C=C/C=C/C(=O)O[C@H]1/C(=C/C(=O)OC)C[C@H]2C[C@H]([C@@H](C)O)OC(=O)C[C@H](O)C[C@@H]3C[C@H](OC(C)=O)C(C)(C)[C@](O)(C[C@@H]4C/C(=C/C(=O)OC)C[C@H](/C=C/C(C)(C)[C@]1(O)O2)O4)O3 [BRYOSTATIN 1]
- Activity (Raji [1]): 1.4%
- GI50 (A549): 6.31 µM
- Activity (Raji [2]): 6.8%
- viability at 1 µM [3]: 40%
- viability at 0.1 µM [4]: 60%
- GI50 (SF-295): 6.31 µM
- Activity (Raji [5]): 2%
- GI50 (MDA-MB-231): 6.31 µM
- GI50 (HCC 2998): 5.01 µM
- Activity (Raji [6]): 5%
- viability at 0.1 µM [7]: 60%
- GI50 (PC-3): 5.01 µM
- viability at 1 µM [8]: 40%
- GI50 (NCI-H460): 2.51 µM

SMILES: CC1(C)CC[C@@H]2CC(=O)O[C@@H](CO)CC(=O)O[C@@H]3C[C@@H](CCCCc4cccc(O)c4)O[C@@]1(C3)O2
- GI50 (U-251): 14.8 µM
- GI50 (NCI-H522): 13.5 µM
- GI50 (LOX IMVI): 1.82 µM
- Activity (Raji [1]): 9.4%
- GI50 (MCF7): 19.1 µM
- GI50 (MKN-74): 17.4 µM
- GI50 (A549): 4.79 µM
- Ki [9]: 0.0074 µM
- GI50 (DMS-273): 12.6 µM
- GI50 (KM12): 13.8 µM
- GI50 (SF-268): 14.8 µM
- GI50 (St-4): 2.82 µM
- GI50 (NCI-H23): 13.2 µM
- Ki [10]: 0.14 µM
- GI50 (SNB-78): 19.1 µM
- GI50 (HT-29): 17 µM
- Activity (Raji [2]): 10.1%
- GI50 (OVCAR-4): 17.8 µM
- viability at 1 µM [3]: 60%
- GI50 [11]: 13.8 µM
- GI50 (OVCAR-8): 19.5 µM
- viability at 0.1 µM [4]: 60%
- GI50 (MKN-28): 18.2 µM
- Ki [12]: 0.039 µM
- GI50 (HCT-116): 16.2 µM
- GI50 (ACHN): 12 µM
- Ki [13]: 0.025 µM
- GI50 [14]: 13.5 µM
- GI50 (OVCAR-3): 16.6 µM
- GI50 (SF-295): 8.71 µM
- GI50 (SNB-75): 15.8 µM
- Activity (Raji [5]): 10.4%
- Ki [15]: 0.004 µM
- GI50 (MKN-7): 16.6 µM
- GI50 (SK-OV-3): 20.4 µM
- GI50 (MDA-MB-231): 2.45 µM
- GI50 (MKN-45): 4.68 µM
- Ki [16]: 0.0044 µM
- GI50 (HCT-15): 17.4 µM
- GI50 (OVCAR-5): 11.2 µM
- GI50 (HCC 2998): 3.72 µM
- Ki [17]: 0.089 µM
- Activity (Raji [6]): 7.5%
- GI50 (NCI-H226): 15.5 µM
- Ki [18]: 0.063 µM
- viability at 0.1 µM [7]: 60%
- GI50 (SF-539): 10.7 µM
- GI50 (DU-145): 14.1 µM
- GI50 [19]: 0.468 µM
- GI50 (PC-3): 11 µM
- GI50 (DMS-114): 16.2 µM
- GI50 [20]: 16.2 µM
- viability at 1 µM [8]: 60%
- GI50 (NCI-H460): 2.51 µM

SMILES: CCCCCCCCCCCCCC(=O)O[C@@H]1[C@@H](C)[C@@]2(O)[C@@H](C=C(CO)C[C@]3(O)C(=O)C(C)=C[C@@H]23)[C@@H]2C(C)(C)[C@]12OC(C)=O [PHORBOL MYRISTATE ACETATE]
- Activity (Raji [1]): 28.8%
- viability at 0.1 µM [4]: 60%
- Activity (Raji [5]): 30.2%
- viability at 1 µM [8]: 50%
